Earlier results, collected in patent publication US8715728B2, “Extended release pellet formulation containing pramipexole or a pharmaceutically acceptable salt thereof” (Boehringer Ingelheim International GmbH, priority 2004, dated 2014).
Where a name gives a salt, the structure may show the parent alone.

How the values were obtained:
[1] = not given; remark: listed apart in the source
[2] = in vivo

Row | solubility in buffer media (between pH 2 and pH 7.4) | Water solubility (water) | stability in solution ([1]; in solution, light) | stability in the solid state ([1]; solid state) | kinetics [2] | SMILES
1 | above 10 mg/ml | more than 20 mg/mL | – | – | – | CCCN[C@H]1CCc2nc(N)sc2C1 [Pramipexole dihydrochloride monohydrate, pramipexole dihydrochloride monohydrate]
2 | – | – | light sensitive | very stable | linear kinetics | CCCN[C@H]1CCc2nc(N)sc2C1 [Pramipexole, (S)-2-amino-4,5,6,7-tetrahydro-6-(propylamino)benzothiazole]
